Holding throughout (type): cell-based
The test system of experiment [1] is human colorectal carcinoma HT29. Put plainly: Annexin-V FACS analysis of apoptosis. Conditions: FIGS. 3 and 4, treated versus control cells. As for the experimental part: This activation was through ERK signaling and not through JNK signaling, resulting in PARP cleavage after 16 h. […] Activation of NFkB (p50) was also observed following treatment with these compounds.
(In general: A flow cytometer gives signals particle by particle.)

The test system of experiment [2] is human colon carcinoma HT-29. As to the kind of experiment: MTS cytotoxicity assay, HT-29. The following applies: Homo sapiens, HT-29, 48 h incubation. A digest of the protocol:
(§1)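 Log-phase human tumour cells plated at about 5000 cells/mL, left 24 h, then exposed to compound dilutions in triplicate for 48 h at 37 °C, 5% CO2. Viability read as MTS/PMS tetrazolium reduction after 2 h, absorbance at 490 nm.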
(In general: Formazan colour is commonly taken as a measure of viable cells.)

The test system of experiment [3] is human colorectal carcinoma HT29. Put plainly: Western blot of signal transduction pathways in HT29 cells. Conditions: HT29, IC50 dose. The protocol: The newly synthesized hydrazones RPC038, RPC042, and RPC046 had shown anti-tumor activity against 60 human cancer cell lines panel of the National Cancer Institute and on multi-drug resistant cell lines. The present studies were conducted to evaluate their action on signal transduction pathways in human colorectal carcinoma HT29. All the three compounds were examined at their IC50 doses.
Human colorectal carcinoma HT29 cells were obtained from the National Cancer Institute, Bethesda, Md., USA, and maintained in 5% CO2 at 37° C. in minimum essential media (Life Technologies, Inc., Grand Island, N.Y., USA) supplemented with 1% penicillin, streptomycin (Invitrogen, Carlsbad, Calif., USA), and 10% fetal bovine serum for optimal growth. HT29 cells (1×10^6) were plated in […], and 24 h later, fresh media was added and treated with the RPC038, RPC042 and RPC046 for indicated time points (2, 4, 8, 16 and 24 h). The cells were then washed with cold phosphate buffered saline (PBS) and taken in 1 ml PBS on ice and centrifuged at 4° C. The pellet was resuspended in appropriate volumes of radio immunoprecipitation assay buffer with protease inhibitor, kept on ice for 45 min and subsequently centrifuged at 4° C. An aliquot of supernatant (protein extract) was used to estimate the protein concentration. An aliquot of protein extract (40 μg) was subjected to Western blot analysis on a 12% polyacrylamide gel and transferred to nitrocellulose membrane. Blots were blocked, incubated with primary anti-pMEK, pERK, pJNK, pcjun, ERK, JNK, Cjun, Caspase-8, Caspase-6, PARP cleavage, or GAPDH antibodies (Cell Signaling Technology, Danvers, Mass.) and then conjugated with a secondary anti-mouse or an anti-rabbit horseradish […] antibody, and detected by ChemiDoc™ XRS+ System with Image Lab™ Software.
In general terms: In western blotting, separated proteins are transferred to a membrane and probed.

Experiment [4] has as its system human cervical adenocarcinoma HeLa. Put plainly: MTS cytotoxicity assay, HeLa. Conditions: Homo sapiens, HeLa, 48 h incubation. The method in brief: as §1
The subject of experiment [5] is 60 human tumor cell lines. Put plainly: NCI 60 human tumor cell line screen, all cell lines. From the text:
(§2) Selected compounds were submitted for testing in the organ-specific panel of human tumor cell lines at the National Cancer Institute, Bethesda, Md. This screen utilized 60 human tumor cell lines, representing leukemia, melanoma, and cancers of the lung, colon, brain, ovary, kidney, prostate, and breast (Boyd, M. R., “Status of the NCl preclinical antitumor drug discovery screen”. In Principles and practice of oncology updates; De Vita, V. T., Jr. Hellman, S., Rosenberg, S. A., Eds.; Lippincott: Philadelphia, Pa., 1989; Vol. 3, pp 1-12).
(§3) The MG MID value is the average of the GI50 values for all the cell lines tested for drug concentrations in the range of 10^−4-10^−8 M (See website domain: dtp.nci.nih.gov/dtp).

In experiment [6] the test system is human colon adenocarcinoma Caco-2. As to the kind of experiment: MTS cytotoxicity assay, Caco-2. The following applies: Homo sapiens, Caco-2, 48 h incubation. The method in brief: as §1
Experiment [7] relates to prostate cancer cell lines. As to the kind of experiment: NCI 60 human tumor cell line screen, prostate. The following applies: Homo sapiens, arithmetic mean of two to nine cancer cell lines, read-out: Inhibitory concentration GI50, prostrate.
Excerpt: as §2, §3

The next experiment relates to breast cancer cell lines. Put plainly: NCI 60 human tumor cell line screen, breast. The following applies: Homo sapiens, arithmetic mean of two to nine cancer cell lines, read-out: Inhibitory concentration GI50, breast.
Excerpt: as §2, §3

The next experiment has as its system HL60. As to the kind of experiment: MTS cytotoxicity on MDR tumor cells, HL60. Conditions: Homo sapiens, HL-60, Vincristine (VCR) sensitive, 72 hr incubation.
For experiment [8], the system named is nonsmall cell lung cancer cell lines. Put plainly: NCI 60 human tumor cell line screen, NSCL. The following applies: Homo sapiens, arithmetic mean of two to nine cancer cell lines, read-out: Inhibitory concentration GI50, NSCL.
Excerpt: as §2, §3

Another experiment concerns melanoma cell lines. Put plainly: NCI 60 human tumor cell line screen, melanoma. Conditions: Homo sapiens, arithmetic mean of two to nine cancer cell lines, read-out: Inhibitory concentration GI50, melanoma.
Excerpt: as §2, §3

The structures appear in SMILES notation.

Turning to `C(=NNc1ncnc2[nH]cnc12)c1ccccn1` [I-18, 6-(2-(Pyridin-2-ylmethylene)hydrazinyl)-9H-purine], the “Apoptosis (Annexin-V, FACS analysis)” value in experiment [1] is listed as “Apoptosis was also established”. In addition, the GI50 was 3.5 µM in experiment [2]; 1.9 µM in experiment [4]; 2.2 µM in experiment [6]; 0.598 µM in experiment [7]; 1.15 µM with breast cancer cell lines; 1.2 µM in the experiment on HL60. In addition, the GI50 in [8] was 1.23 µM; with melanoma cell lines, 0.753 µM. The “phosphorylation of ERK (time)” value in experiment [3] (Western blot pERK) was determined as 4 h. Besides, the “phosphorylation of JNK” value in [3] (Western blot pJNK (results not shown)) is “without phosphorylation of JNK”. The “MEK activation (time)” value in experiment [3] (Western blot pMEK) amounted to 2 h. Besides, the “activation of cjun (time)” value in [3] (Western blot pcjun) turned out to be 6 h. Also, the Caspase activation result in experiment [3] (initial studies) is “Caspase-3 activation through Caspase-6 and not through Caspase-8”. In addition, in [5] (Homo sapiens, average of the GI50 values for all the cell lines tested, drug concentrations 10^−4-10^−8 M, read-out: MG-MID (mean graph midpoint)), the mean GI50 (MG-MID) is 0.977 µM. Moreover, the “cells found to be the most sensitive” value in [5] (NCI screen, by cancer type) is “prostate, ovarian, CNS, and melanoma cancer cell lines”.
